We go through 1 molecule from patent publication US20070048250A1, “Methods of treating concomitant constipation in a cancer treatment regimen including imexon” (AmpliMed Corporation, priority 2005, published 2007).

The test system of one data set is transplanted tumors. The conditions noted are these: in vivo; cited from earlier work.
For data set [1], the system named is gastrointestinal transit of a charcoal meal. The data set can be described thus: GLP study, gastrointestinal transit of a charcoal meal in rats. The note with it: intravenous, 100 mg/kg. The class given is in vivo. The source says:
Following the unexpected identification of constipation toxicities in patients being treated with imexon in a cancer treatment regimen, a GLP (good laboratory practices) study was undertaken to evaluate the effects of imexon on the gastrointestinal transit of a charcoal meal in rats.

As to `N=C1NC(=O)N2CC12` (stereo not drawn) [imexon, 4-imino-1,3-diazabicyclo[3.1.0]-hexan-2-one], the “activity against a variety of transplanted tumors in rodents” value in the data set with transplanted tumors is on record as “active”. Also, in data set [1], the “effect on gastric emptying” value is reported as “reduction in gastric emptying” and the “effect on gastrointestinal transit” value is listed as “statistically significant inhibition of gastrointestinal transit”.
